Tests used:
Assay in all cases: (S)DDA disc diffusion
P. acnes PRP-002 = format: cell-based, Propionibacterium acnes
Experimental: (§1) The propionibacteria were cultured and maintained on Wilkins-Chalgren Anaerobe Medium (agar and broth) at pH 6.0; all cultures were incubated anaerobically at 37° C. for 72 hours.
(§2) A sterile paper disc was impregnated with a sample of the test compound in a suitable solvent and 30 minutes allowed for the solvents to evaporate (where possible). The disc was then placed on an agar plate onto which the test micro-organism had been inoculated. The plate was then incubated under the conditions described above, following which it was examined visually for signs of microbial growth. If the test compound had antimicrobial activity, a circular zone of no growth would be obtained around the disc. The diameter of this zone of “inhibition” was measured using a ProtoCOL™ automated zone sizer (Synbiosis, Cambridge, UK). In general, a greater diameter and/or area of the zone of inhibition indicates a greater antimicrobial activity in the relevant test compound, although other factors such as test compound mobility through the agar gel may also influence the result.
(§3) Two test a compounds A and B were placed on a single paper disc and the above described DDA procedure repeated. An increase in diameter of the zone of inhibition, compared to the greater of the zone diameters for the two compounds individually, was taken to indicate potential antimicrobial synergy. In practical terms, an increase of greater than 5 mm could be treated as significant.
(§4) Both the DDA and the SDDA test may be carried out using an agar gel supplemented with lipid and/or salt to simulate some of the major components present in human skin and to assess whether these substances might reduce the antimicrobial activity observed for the test compound. Performance under these conditions can provide a more reliable indication of activity on topical application. The supplements used in Examples 1, 11, 12 and 13 below were lipid (either Tween™ 80 at 1% v/v (Example 1) or triolein at 1% v/v (Examples 11, 12 and 13) and sodium chloride (100 mM).

P. acnes PRP-003 = format: cell-based, Propionibacterium acnes
Experimental: as §1, §2, §3, §4

P. acnes PRP-004 = format: cell-based, Propionibacterium acnes
Experimental: as §1, §2, §3, §4

P. acnes PRP-007 = format: cell-based, Propionibacterium acnes
Experimental: as §1, §2, §3, §4

P. acnes PRP-008 = format: cell-based, Propionibacterium acnes
Experimental: as §1, §2, §3, §4

P. acnes PRP-010 = format: cell-based, Propionibacterium acnes
Experimental: as §1, §2, §3, §4

P. acnes PRP-017 = format: cell-based, Propionibacterium acnes
Experimental: as §1, §2, §3, §4

P. acnes PRP-023 = format: cell-based, Propionibacterium acnes
Experimental: as §1, §2, §3, §4

P. acnes PRP-026 = format: cell-based, Propionibacterium acnes
Experimental: as §1, §2, §3, §4

P. acnes PRP-039 = format: cell-based, Propionibacterium acnes; settings: for DDA: P. acnes PRP-039 (Tet/MLS), 200 μg TCC or 50 μg DOSS per disc
Experimental: as §1, §2, §3, §4

P. acnes PRP-046 = format: cell-based, Propionibacterium acnes
Experimental: as §1, §2, §3, §4

P. acnes PRP-053 = format: cell-based, Propionibacterium acnes
Experimental: as §1, §2, §3, §4

P. acnes PRP-059 = format: cell-based, Propionibacterium acnes
Experimental: as §1, §2, §3, §4

P. acnes PRP-068 = format: cell-based, Propionibacterium acnes
Experimental: as §1, §2, §3, §4

P. acnes PRP-101 = format: cell-based, Propionibacterium acnes
Experimental: as §1, §2, §3, §4

P. acnes PRP-102 = format: cell-based, Propionibacterium acnes
Experimental: as §1, §2, §3, §4

S. aureus ATCC 29213 = format: cell-based, Staphylococcus aureus; settings: 200 μg per disc
Experimental: as §2, §3
The activities of DOSS and TCC against S. aureus ATCC 29213 and EMRSA 15 were determined using (S)DDAs as described above. 200 μg of the DOSS and/or the TCC were loaded onto each disc. All the experiments were conducted in triplicate.

[1] = P. acnes PRP-002 (Tet/MLS), 200 μg TCC or 50 μg DOSS per disc
[2] = P. acnes PRP-003 (Tet), 200 μg TCC or 50 μg DOSS per disc
[3] = P. acnes PRP-004 (Tet), 200 μg TCC or 50 μg DOSS per disc
[4] = P. acnes PRP-007 (Clin), 200 μg TCC or 50 μg DOSS per disc
[5] = P. acnes PRP-008 (Clin), 200 μg TCC or 50 μg DOSS per disc
[6] = P. acnes PRP-010 (MLSK), 200 μg TCC or 50 μg DOSS per disc
[7] = P. acnes PRP-017 (MLS), 200 μg TCC or 50 μg DOSS per disc
[8] = P. acnes PRP-023 (MLSK), 200 μg TCC or 50 μg DOSS per disc
[9] = P. acnes PRP-026 (MLS), 200 μg TCC or 50 μg DOSS per disc
[10] = P. acnes PRP-046 (resistance None), 200 μg TCC or 50 μg DOSS per disc
[11] = P. acnes PRP-053 (Tet/MLS), 200 μg TCC or 50 μg DOSS per disc
[12] = P. acnes PRP-059 (MLS), 200 μg TCC or 50 μg DOSS per disc
[13] = P. acnes PRP-068 (Ery), 200 μg TCC or 50 μg DOSS per disc
[14] = P. acnes PRP-101 (Tet/MLS), 200 μg TCC or 50 μg DOSS per disc
[15] = P. acnes PRP-102 (Tet/MLS), 200 μg TCC or 50 μg DOSS per disc

Molecule: O=C(Nc1ccc(Cl)cc1)Nc1ccc(Cl)c(Cl)c1 [TCC, N-(4-chlorophenyl)-N′-(3,4-dichlorophenyl) urea]
- DDA (P. acnes PRP-002; [1]): 34.22 mm
- DDA (P. acnes PRP-003; [2]): 23.64 mm
- DDA (P. acnes PRP-004; [3]): 15.42 mm
- DDA (P. acnes PRP-007; [4]): 13.87 mm
- DDA (P. acnes PRP-008; [5]): 14.80 mm
- DDA (P. acnes PRP-010; [6]): 22.81 mm
- DDA (P. acnes PRP-017; [7]): 18.81 mm
- DDA (P. acnes PRP-023; [8]): 21.27 mm
- DDA (P. acnes PRP-026; [9]): 22.71 mm
- DDA (P. acnes PRP-039): 18.91 mm
- DDA (P. acnes PRP-046; [10]): 20.25 mm
- DDA (P. acnes PRP-053; [11]): 21.58 mm
- DDA (P. acnes PRP-059; [12]): 19.73 mm
- DDA (P. acnes PRP-068; [13]): 22.30 mm
- DDA (P. acnes PRP-101; [14]): 16.75 mm
- DDA (P. acnes PRP-102; [15]): 14.59 mm
- DDA (S. aureus ATCC 29213): 12.84 mm

Molecule: dioctyl sodium sulphosuccinate [DOSS]
- DDA (P. acnes PRP-002; [1]): 31.76 mm
- DDA (P. acnes PRP-002; P. acnes PRP-002, 200 μg per disc): 49.49 mm
- DDA + salt (P. acnes PRP-002; P. acnes PRP-002, 200 μg per disc, sodium chloride 100 mM): 51.36 mm
- DDA + lipid (P. acnes PRP-002; P. acnes PRP-002, 200 μg per disc, triolein 1% v/v): 48.25 mm
- DDA (P. acnes PRP-003; [2]): 27.95 mm
- DDA (P. acnes PRP-003; P. acnes PRP-003, 200 μg per disc): 42.96 mm
- DDA + salt (P. acnes PRP-003; P. acnes PRP-003, 200 μg per disc, sodium chloride 100 mM): 46.69 mm
- DDA + lipid (P. acnes PRP-003; P. acnes PRP-003, 200 μg per disc, triolein 1% v/v): 43.58 mm
- DDA (P. acnes PRP-004; [3]): 26.62 mm
- DDA (P. acnes PRP-004; P. acnes PRP-004, 200 μg per disc): 48.56 mm
- DDA + salt (P. acnes PRP-004; P. acnes PRP-004, 200 μg per disc, sodium chloride 100 mM): 43.27 mm
- DDA + lipid (P. acnes PRP-004; P. acnes PRP-004, 200 μg per disc, triolein 1% v/v): 46.07 mm
- DDA (P. acnes PRP-007; [4]): 21.38 mm
- DDA (P. acnes PRP-007; P. acnes PRP-007, 200 μg per disc): 47.32 mm
- DDA + salt (P. acnes PRP-007; P. acnes PRP-007, 200 μg per disc, sodium chloride 100 mM): 42.96 mm
- DDA + lipid (P. acnes PRP-007; P. acnes PRP-007, 200 μg per disc, triolein 1% v/v): 44.82 mm
- DDA (P. acnes PRP-008; [5]): 24.87 mm
- DDA (P. acnes PRP-008; P. acnes PRP-008, 200 μg per disc): 48.25 mm
- DDA + salt (P. acnes PRP-008; P. acnes PRP-008, 200 μg per disc, sodium chloride 100 mM): 48.56 mm
- DDA + lipid (P. acnes PRP-008; P. acnes PRP-008, 200 μg per disc, triolein 1% v/v): 43.58 mm
- DDA (P. acnes PRP-010; [6]): 26.82 mm
- DDA (P. acnes PRP-010; P. acnes PRP-010, 200 μg per disc): 46.69 mm
- DDA + salt (P. acnes PRP-010; P. acnes PRP-010, 200 μg per disc, sodium chloride 100 mM): 46.07 mm
- DDA + lipid (P. acnes PRP-010; P. acnes PRP-010, 200 μg per disc, triolein 1% v/v): 39.84 mm
- DDA (P. acnes PRP-017; [7]): 28.98 mm
- DDA (P. acnes PRP-017; P. acnes PRP-017, 200 μg per disc): 47.94 mm
- DDA + salt (P. acnes PRP-017; P. acnes PRP-017, 200 μg per disc, sodium chloride 100 mM): 47.63 mm
- DDA + lipid (P. acnes PRP-017; P. acnes PRP-017, 200 μg per disc, triolein 1% v/v): 44.82 mm
- DDA (P. acnes PRP-023; [8]): 26.41 mm
- DDA (P. acnes PRP-023; P. acnes PRP-023, 200 μg per disc): 49.49 mm
- DDA + salt (P. acnes PRP-023; P. acnes PRP-023, 200 μg per disc, sodium chloride 100 mM): 47.32 mm
- DDA + lipid (P. acnes PRP-023; P. acnes PRP-023, 200 μg per disc, triolein 1% v/v): 46.38 mm
- DDA (P. acnes PRP-026; [9]): 28.26 mm
- DDA (P. acnes PRP-026; P. acnes PRP-026, 200 μg per disc): 49.81 mm
- DDA + salt (P. acnes PRP-026; P. acnes PRP-026, 200 μg per disc, sodium chloride 100 mM): 48.25 mm
- DDA + lipid (P. acnes PRP-026; P. acnes PRP-026, 200 μg per disc, triolein 1% v/v): 43.89 mm
- DDA (P. acnes PRP-039): 23.02 mm
- DDA + salt (P. acnes PRP-039; P. acnes PRP-039, 200 μg per disc, sodium chloride 100 mM): 46.38 mm
- DDA (P. acnes PRP-046; [10]): 25.08 mm
- DDA (P. acnes PRP-046; P. acnes PRP-046, 200 μg per disc): 44.51 mm
- DDA + salt (P. acnes PRP-046; P. acnes PRP-046, 200 μg per disc, sodium chloride 100 mM): 47.00 mm
- DDA + lipid (P. acnes PRP-046; P. acnes PRP-046, 200 μg per disc, triolein 1% v/v): 41.09 mm
- DDA (P. acnes PRP-053; [11]): 17.78 mm
- DDA (P. acnes PRP-053; P. acnes PRP-053, 200 μg per disc): 49.49 mm
- DDA + salt (P. acnes PRP-053; P. acnes PRP-053, 200 μg per disc, sodium chloride 100 mM): 44.82 mm
- DDA + lipid (P. acnes PRP-053; P. acnes PRP-053, 200 μg per disc, triolein 1% v/v): 42.02 mm
- DDA (P. acnes PRP-059; [12]): 11.82 mm
- DDA (P. acnes PRP-059; P. acnes PRP-059, 200 μg per disc): 43.58 mm
- DDA + salt (P. acnes PRP-059; P. acnes PRP-059, 200 μg per disc, sodium chloride 100 mM): 44.20 mm
- DDA + lipid (P. acnes PRP-059; P. acnes PRP-059, 200 μg per disc, triolein 1% v/v): 44.82 mm
- DDA (P. acnes PRP-068; [13]): 25.59 mm
- DDA (P. acnes PRP-068; P. acnes PRP-068, 200 μg per disc): 48.87 mm
- DDA + salt (P. acnes PRP-068; P. acnes PRP-068, 200 μg per disc, sodium chloride 100 mM): 46.69 mm
- DDA + lipid (P. acnes PRP-068; P. acnes PRP-068, 200 μg per disc, triolein 1% v/v): 44.51 mm
- DDA (P. acnes PRP-101; [14]): 14.59 mm
- DDA (P. acnes PRP-101; P. acnes PRP-101, 200 μg per disc): 41.40 mm
- DDA + lipid (P. acnes PRP-101; P. acnes PRP-101, 200 μg per disc, triolein 1% v/v): 40.47 mm
- DDA (P. acnes PRP-102; [15]): 22.81 mm
- DDA (P. acnes PRP-102; P. acnes PRP-102, 200 μg per disc): 44.82 mm
- DDA + salt (P. acnes PRP-102; P. acnes PRP-102, 200 μg per disc, sodium chloride 100 mM): 41.71 mm
- DDA + lipid (P. acnes PRP-102; P. acnes PRP-102, 200 μg per disc, triolein 1% v/v): 37.98 mm
- DDA (S. aureus ATCC 29213): 12.22 mm

Reference: US20100273876A1, “ANTIBACTERIAL FORMULATION COMPRISING A DIALKYL SULPHOSUCCINATE AND A CARBANILIDE ANTIBACTERIAL AGENT” (priority 2007, published 2010)
